Columns and labels:
hamsters = experiment: Post-coital antifertility activity in pregnant hamsters, subcutaneous (days 4-8, autopsy day 14); type: in vivo, Syrian golden hamsters; conditions: 10 mg/kg s.c. daily for 5 days, days 4-8 of pregnancy, sesame oil
Procedure: Representative experiments for assessing antifertility activity were carried out with femal Syrian golden hamsters weighing 100 to 130 g. The animals were mated and the presence of sperm in the vagina was taken as evidence of mating. […] Pregnancy was later confirmed at the time of autopsy by presence of fetuses or implantation sites in the uterus. Even if an animal aborts the fetus, implantation scars still remain as evidence that the animal has been pregnant.
The animals were autopsied on day 14 of pregnancy and the uteri were examined for evidence of pregnancy (implantation sites, fetal resorptions or live fetuses), hemorrage, and evidence of abnormalities of the uterus, placenta or fetuses.

rats = experiment: Anti-reproductive activity in pregnant rats, subcutaneous (5 days from day 6, autopsy day 16); type: in vivo, Sprague-Dawley rats; conditions: Rattus norvegicus, sc, 384 h, 20 mg/kg s.c., five consecutive days from day 6 of pregnancy, sesame oil, read-out: reduction of live fetuses, % of the treated rats
Procedure: The same criteria and experimental conditions as above were also applied when the anti-reproductive activity of the compounds of the invention was investigated in other animal species such as, for instance, rats, dogs, monkeys and baboons. In representative experiments, female Sprague-Dawley rats weighing from 200 to 300 g. were treated subcutaneously with a dosage of 20 mg/kg of the compound to be tested, dissolved in sesame oil, for five consecutive days starting from day 6 of pregnancy.

SMILES | antifertility activity (active: reduction of live fetuses in at least 60% of the treated animals) (hamsters) | responders at 20 mg/kg (rats)
c1ccc(-c2n[nH]c(-c3ccccc3)n2)cc1 [3,5-diphenyl-1H-1,2,4-triazole, reference compound] | much less active | –
COc1cccc(-c2n[nH]c(-c3ccccc3C)n2)c1 [Example 1, 3-(m-Methoxyphenyl)-5-(o-tolyl)-1H-1,2,4-triazole] | active | –
COc1ccccc1-c1n[nH]c(-c2ccccc2C)n1 [Example 4, 3-(o-Methoxyphenyl)-5-(o-tolyl)-1H-1,2,4-triazole] | active | –
CCOc1cccc(-c2n[nH]c(-c3ccccc3C)n2)c1 [Example 9, 3-(m-Ethoxyphenyl)-5-(o-tolyl)-1H-1,2,4-triazole] | – | ≥ 60%
C=CCOc1cccc(-c2n[nH]c(-c3ccccc3C)n2)c1 [Example 10, 3-(m-Allyloxyphenyl)-5-(o-tolyl)-1H-1,2,4-triazole] | – | ≥ 60%
Cc1ccccc1-c1nc(-c2ccc(-c3ccccc3)cc2)n[nH]1 [Example 11, 3-(1,1'-Biphenyl-4-yl)-5-(o-tolyl)-1H-1,2,4-triazole] | – | ≥ 60%
C=CCOc1cccc(-c2n[nH]c(-c3ccccc3CC)n2)c1 [Example 13, 3-(m-Allyloxyphenyl)-5-(o-ethylphenyl)-1H-1,2,4-triazole] | – | ≥ 60%
CCc1ccccc1-c1nc(-c2ccc(Cl)cc2)n[nH]1 [Example 14, 3-(p-Chlorophenyl)-5-(o-ethylphenyl)-1H-1,2,4-triazole] | – | ≥ 60%
CC(C)c1ccccc1-c1nc(-c2ccccc2)n[nH]1 [Example 15, 5-(o-Isopropylphenyl)-3-phenyl-1H-1,2,4-triazole] | – | ≥ 60%
COc1cccc(-c2n[nH]c(-c3ccccc3C(C)C)n2)c1 [Example 16, 5-(o-Isopropylphenyl)-3-(m-methoxyphenyl)-1H-1,2,4-triazole] | – | ≥ 60%
CCc1ccccc1-c1nc(-c2cccc(F)c2)n[nH]1 [Example 18, 5-(o-Ethylphenyl)-3-(m-fluorophenyl)-1H-1,2,4-triazole] | active | –
CCc1ccccc1-c1nc(-c2ccc3c(c2)OCO3)n[nH]1 [Example 22, 5-(o-Ethylphenyl)-3-(3,4-methylenedioxyphenyl)-1H-1,2,4-triazole] | active | –
Cc1ccc(-c2nc(-c3ccccc3)n[nH]2)c(C)c1 [Example 25, 5-(2,4-Dimethylphenyl)-3-phenyl-1H-1,2,4-triazole] | active | –
COc1cccc(-c2n[nH]c(-c3ccc(C)cc3C)n2)c1 [Example 26, 5-(2,4-Dimethylphenyl)-3-(m-methoxyphenyl)-1H-1,2,4-triazole] | active | –
Cc1cc(Cl)ccc1-c1nc(-c2ccccc2)n[nH]1 [Example 29, 5-(4-Chloro-2-methylphenyl)-3-phenyl-1H-1,2,4-triazole] | active | –
COc1cccc(-c2n[nH]c(-c3ccc(Cl)cc3C)n2)c1 [Example 30, 5-(4-Chloro-2-methylphenyl)-3-(m-methoxyphenyl)-1H-1,2,4-triazole] | active | –
COc1cccc(-c2n[nH]c(-c3cc(Cl)ccc3C)n2)c1 [Example 32, 5-(5-Chloro-2-methylphenyl)-3-(m-methoxyphenyl)-1H-1,2,4-triazole] | active | –
